In US6191290A, “Taxane derivatives for targeted therapy of cancer” (UAB Research Foundation, priority 2000, dated 2001):

Legend:
[1] = Solubility in aqueous and organic solvents; format: physicochemical; settings: unconjugated peptide
Text: Prior to the biological evaluation of this compound, two key issues needed to be addressed: The overall water solubility and the cell surface receptor binding ability of the conjugate.

[2] = tested on: G18 human astrocytoma cells; settings: cited from earlier work
[3] = clinical trials; cited from earlier work
[4] = tested on: NCI-H1299 cells; experiment: Cytotoxicity assay at day 4 against NCI-H1299 cells, conjugate versus underivatized paclitaxel
Procedure: To evaluate the cytotoxic effects of the paclitaxel conjugate, experiments were designed to compare these effects with the underivatized, unconjugated paclitaxel.
To evaluate the cytotoxic activity of the conjugate relative to the intact, underivatized paclitaxel on the NCI-H1299 cells, 25 nM and 50 nM samples of paclitaxel and 10 nM and 30 nM solutions of the conjugate were incubated with the cells and the survival was assessed on day 4.

[5] = tested on: Burkitts lymphoma xenografts; settings: nude mice bearing Burkitts lymphoma xenografts; cited from earlier work
[6] = Homo sapiens, NCI-H1299, 96 h, read-out: cytotoxicity (cell destruction)
[7] = Homo sapiens, NCI-H1299, 96 h, read-out: growth inhibition / cell destruction

| Compound | solubility [1] | radiosensitizing effect [2] | reported side effects [3] | cytotoxicity at 0.01 µM [4, 6] | cytotoxicity at 0.025 µM [4, 6] | inhibition at 0.025 µM [4, 7] | inhibition at 0.05 µM [4, 7] | cytotoxicity (cell destruction) ([4]; human, nci-h1299 cells, 96 h, 0.01 µM) | radiosensitizing effect [5] |
| --- | --- | --- | --- | --- | --- | --- | --- | --- | --- |
| CC(C)C[C@H](NC(=O)[C@H](Cc1cnc[nH]1)NC(=O)CNC(=O)[C@@H](NC(=O)[C@H](C)NC(=O)[C@H](Cc1c[nH]c2ccccc12)NC(=O)[C@@H](N)CCC(N)=O)C(C)C)C(N)=O [BBN[7-13]] | soluble only in DMF and alcohols |  |  |  |  |  |  |  |  |
| CC(=O)O[C@H]1C(=O)[C@@]2(C)[C@H]([C@H](OC(=O)c3ccccc3)[C@]3(O)C[C@H](OC(=O)[C@H](O)[C@@H](NC(=O)c4ccccc4)c4ccccc4)C(C)=C1C3(C)C)[C@]1(OC(C)=O)CO[C@@H]1C[C@@H]2O [paclitaxel] |  | radiosensitizing effect | neutropenia, mucositis, cardiac and neurological toxicities in addition to hypersensitivity | 0% | 20% | 23% | 51% | 0% | radiosensitizing effect |
